Reference: patent publication US6887873B2, “Triazine derivatives and their application as antitelomerase agents” (Aventis Pharma S.A., priority 2001, dated 2005)
pIC50: −log10 of the molar value. Read-outs that look alike come from different tables or passages of the source.

Assays:
[1] = test system: human telomerease (HL60 cell extract); assay: Antitelomerease activity: extension of oligonucleotide TS followed by PCR amplification, with HL60 extract; type: biochemical; details: read-out: TRAP IC50
Summary of the method: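 HL60 CHAPS-lysate extract extends TS primer (15 min, 30 °C) with compound at 10, 1, 0.1 and 0.01 µM, followed by 30-cycle PCR with TS and CXext. Products resolved on 12% acrylamide and quantified; % inhibition versus enzyme control and blank, IC50 read from semilog plot.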

A549 cells = assay: Cytotoxic activity on human tumour line A549, neutral red, 96 hours; type: cell-based; details: read-out: Cytotox. A549 IC50
Protocol: The cytotoxic biological activity on human tumour lines is determined according to the following experimental protocol:
The human cell lines A549 are obtained from ATCC (American Type Culture Collection, Rockville, USA). The A549 cells are cultured in a layer in a culture flask in RPMI 1640 medium containing L-glutamine at 2 mM, penicillin 200 U/ml, streptomycin 200 μg/ml and supplemented with 10% heat-inactivated foetal calf serum. The KB cells are cultured in a layer in a culture flask in Dulbelco's medium containing L-glutamine at 2 mM, penicillin 200 U/ml, streptomycin 200 μg/ml and supplemented with 10% heat-inactivated foetal calf serum.
The cells at the exponential growth phase are trypsinized, washed in 1×PBS and are inoculated in 96-well microplates (Costar) in an amount of 4×10^4 cells/ml for A549 and of 1.5×10^4 cells/ml (0.2 ml/well) and then incubated for 96 hours in the presence of variable concentrations of product to be studied (10, 1, 0.1 and 0.01 μM, each point in quadruplicate). 16 hours before the end of the incubation, 0.02% final of neutral red is added to each well. At the end of the incubation, the cells are washed with 1×PBS and lysed with 1% sodium lauryl sulphate. The cellular incorporation of the dye, which reflects cellular growth, is evaluated by spectro-photometry at a wavelength of 540 nm for each sample with the aid of a Dynatech MR5000 reading apparatus.
For each compound concentration tested, the results are expressed as percentage of inhibition of cellular growth and calculated from the untreated control and the culture medium free of cells (blank) according to the following formula: (compound value−blank value/cell control value−blank value)×100.
The concentration of compound inducing a 50% inhibition of growth (IC50) is determined with the aid of a semilogarithmic graphical representation of the inhibition values obtained as a function of each of the compound concentrations tested.
A compound is considered to be active as cytotoxic agent if the concentration inhibiting the growth of the tumour cells tested by 50% is in particular less than 10 μM.

Compound	pIC50 [1]	pIC50 (A549 cells; Homo sapiens, A549, A549)	pIC50 (A549 cells; A549)
CCN(CCNc1nc(Nc2ccc3nc(C)cc(N(C)C)c3c2)nc(Nc2ccc3nc(C)cc(N(C)C)c3c2)n1)c1cccc(C)c1 [Example 28]	6.05	5.82	
Cc1cc(N(C)C)c2cc(Nc3nc(Nc4ccc5nc(C)cc(N(C)C)c5c4)nc(N(C)C4CCN(C)CC4)n3)ccc2n1 [Example 138, 2,4-bis(4-dimethylamino-2-methylquinolin-6-yl)amino-6-[N-(1-methylpiperidin-4-yl)-N-methylamino]-[1,3,5]triazine]	6.30	7.21	
COc1cccc(Oc2nc(Nc3ccc4nc(C)cc(N)c4c3)nc(Nc3ccc4nc(C)cc(N)c4c3)n2)c1 [Example 104]	5.92	4.94	
Cc1cc(N(C)C)c2cc(Nc3nc(Nc4ccc5nc(C)cc(N(C)C)c5c4)nc(N4CCN(C)CC4)n3)ccc2n1 [Example 20, 2,4-bis(4-dimethylamino-2-methylquinolin-6-yl)amino-6-(4-methylpiperazin-1-yl)-[1,3,5]triazine]	6.36	6.46	
Cc1cc(N)c2cc(Nc3nc(Nc4ccc5nc(C)cc(N)c5c4)nc(Sc4ccccn4)n3)ccc2n1 [Example 120]	6.42	4.75	
Cc1cc(N)c2cc(Nc3nc(Nc4ccc5nc(C)cc(N)c5c4)nc(N4CCN(C5CCCC5)CC4)n3)ccc2n1 [Example 43]	6.74	5.00	
Cc1cc(N(C)C)c2cc(Nc3nc(NCc4ccncc4)nc(Nc4ccc5nc(C)cc(N(C)C)c5c4)n3)ccc2n1 [Example 27, 2,4-bis(4-dimethylamino-2-methylquinolin-6-yl)amino-6-(pyridin-4-yl)methylamino-[1,3,5]triazine]	6.22		6.00
Cc1cc(N)c2cc(Nc3nc(Nc4ccc5nc(C)cc(N)c5c4)nc(NC4CCN(Cc5ccccc5)C4)n3)ccc2n1 (stereo not drawn) [Example 41]	6.44	5.00	
Cc1cc(N)c2cc(Nc3nc(Nc4ccc5nc(C)cc(N)c5c4)nc(Oc4ccccc4Cl)n3)ccc2n1 [Example 103]	6.55	4.95	
Cc1cc(N(C)C)c2cc(Nc3nc(Nc4ccncc4)nc(Nc4ccc5nc(C)cc(N(C)C)c5c4)n3)ccc2n1 [Example 18]	5.92	5.54	
Cc1cc(N(C)C)c2cc(Nc3nc(Nc4ccc5nc(C)cc(N(C)C)c5c4)nc(N4CCN(C5CCCC5)CC4)n3)ccc2n1 [Example 143]	6.40	6.28	
Cc1cc(N(C)C)c2cc(Nc3nc(NCCN4CCN(Cc5ccccc5)CC4)nc(Nc4ccc5nc(C)cc(N(C)C)c5c4)n3)ccc2n1 [Example 140]	6.00	6.29	
